Measured values reported in PubChem BioAssay (NCI).
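GI50 marks 50% less growth. TGI: concentration producing complete growth inhibition.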

Legend:
Experiment in all cases: NCI tumour cell line growth inhibition, 384-well format
UACC-257 melanoma = tested on: UACC-257 melanoma
OVCAR-3 ovarian = tested on: OVCAR-3 ovarian
HOP-62 NSCLC = tested on: HOP-62 NSCLC
NCI-H322M lung = tested on: NCI-H322M lung
NCI-H23 lung = tested on: NCI-H23 lung
A498 renal = tested on: A498 renal
MDA-MB-231 breast = tested on: MDA-MB-231 breast
COLO 205 colon = tested on: COLO 205 colon
OVCAR-4 ovarian = tested on: OVCAR-4 ovarian
SF-295 CNS = tested on: SF-295 CNS
UO-31 renal = tested on: UO-31 renal
ACHN renal = tested on: ACHN renal
MOLT-4 leukemia = tested on: MOLT-4 leukemia
TK-10 renal = tested on: TK-10 renal
EKVX NSCLC = tested on: EKVX NSCLC
HS 578T breast = tested on: HS 578T breast
786-0 renal = tested on: 786-0 renal
K-562 leukemia = tested on: K-562 leukemia
MDA-MB-435 melanoma = tested on: MDA-MB-435 melanoma
SF-268 CNS = tested on: SF-268 CNS
HCT-15 colon = tested on: HCT-15 colon
SNB-19 CNS = tested on: SNB-19 CNS
CCRF-CEM leukemia = tested on: CCRF-CEM leukemia
A549 NSCLC = tested on: A549 NSCLC
SNB-75 CNS = tested on: SNB-75 CNS
LOX IMVI melanoma = tested on: LOX IMVI melanoma
HT29 colon = tested on: HT29 colon
HL-60(TB) leukemia = tested on: HL-60(TB) leukemia
T-47D breast = tested on: T-47D breast
MDA-MB-468 breast = tested on: MDA-MB-468 breast
M14 melanoma = tested on: M14 melanoma
SK-MEL-5 melanoma = tested on: SK-MEL-5 melanoma
RXF 393 renal = tested on: RXF 393 renal
UACC-62 melanoma = tested on: UACC-62 melanoma
OVCAR-5 ovarian = tested on: OVCAR-5 ovarian
NCI-H460 NSCLC = tested on: NCI-H460 NSCLC
OVCAR-8 ovarian = tested on: OVCAR-8 ovarian
NCI-H226 lung = tested on: NCI-H226 lung
IGROV1 ovarian = tested on: IGROV1 ovarian
HOP-92 NSCLC = tested on: HOP-92 NSCLC
SR leukemia = tested on: SR leukemia
NCI/ADR-RES ovarian = tested on: NCI/ADR-RES ovarian
SW-620 colon = tested on: SW-620 colon
DU-145 prostate = tested on: DU-145 prostate
SK-MEL-28 melanoma = tested on: SK-MEL-28 melanoma
BT-549 breast = tested on: BT-549 breast
MCF7 breast = tested on: MCF7 breast
SF-539 CNS = tested on: SF-539 CNS
KM12 colon = tested on: KM12 colon
PC-3 prostate = tested on: PC-3 prostate
CAKI-1 renal = tested on: CAKI-1 renal
NCI-H522 lung = tested on: NCI-H522 lung
MALME-3M melanoma = tested on: MALME-3M melanoma
SN12C renal = tested on: SN12C renal
RPMI-8226 leukemia = tested on: RPMI-8226 leukemia
HCC-2998 colon = tested on: HCC-2998 colon
SK-OV-3 ovarian = tested on: SK-OV-3 ovarian

For `Cn1ncc(-c2ccc3c(=O)[nH]nc(CN)c3c2)c1-c1c(F)cc2ccccc2c1C#N`, the GI50 (UACC-257 melanoma) was 2.64 µM, the TGI (UACC-257 melanoma) was 8.43 µM and the GI50 (OVCAR-3 ovarian) was 1.77 µM. It also gave a TGI (OVCAR-3 ovarian) of 5.25 µM, a GI50 (HOP-62 NSCLC) of 2.41 µM and a TGI (HOP-62 NSCLC) of 13 µM. It also gave a GI50 (NCI-H322M lung) of 4.74 µM, a TGI (NCI-H322M lung) of 18.3 µM and a GI50 (NCI-H23 lung) of 2.19 µM. The TGI (NCI-H23 lung) was 7.34 µM, the GI50 (A498 renal) was 2.22 µM and the TGI (A498 renal) was 11 µM. The GI50 (MDA-MB-231 breast) was 2.1 µM, the TGI (MDA-MB-231 breast) was 14.4 µM and the GI50 (COLO 205 colon) was 2.9 µM. The TGI (COLO 205 colon) was 15.3 µM, the GI50 (OVCAR-4 ovarian) was 1.3 µM and the TGI (OVCAR-4 ovarian) was 7.5 µM. The GI50 (SF-295 CNS) was 4.96 µM, the TGI (SF-295 CNS) was 17.2 µM and the GI50 (UO-31 renal) was 6.43 µM. It also gave a TGI (UO-31 renal) of 19.6 µM, a GI50 (ACHN renal) of 2.3 µM and a TGI (ACHN renal) of 11.2 µM. It also gave a GI50 (MOLT-4 leukemia) of 0.0298 µM, a TGI (MOLT-4 leukemia) of 0.101 µM and a GI50 (TK-10 renal) of 8.98 µM. It also gave a TGI (TK-10 renal) of 21.2 µM, a GI50 (EKVX NSCLC) of 5.14 µM and a TGI (EKVX NSCLC) of 18.7 µM. It also gave a GI50 (HS 578T breast) of 1.76 µM, a TGI (HS 578T breast) of 4.22 µM and a GI50 ([…]-0 renal) of 2.13 µM. For the same compound, the TGI (786-0 renal) was 12.6 µM, the GI50 (K-562 leukemia) was 2.11 µM and the TGI (K-562 leukemia) was 8.63 µM. The GI50 (MDA-MB-435 melanoma) was 2.08 µM, the TGI (MDA-MB-435 melanoma) was 4.61 µM and the GI50 (SF-268 CNS) was 2.4 µM. The TGI (SF-268 CNS) was 12 µM, the GI50 (HCT-15 colon) was 2.28 µM and the TGI (HCT-15 colon) was 10.8 µM. For the same compound, the GI50 (SNB-19 CNS) was 4.87 µM, the TGI (SNB-19 CNS) was 18.8 µM and the GI50 (CCRF-CEM leukemia) was 1.15 µM. The TGI (CCRF-CEM leukemia) was 3.04 µM, the GI50 (A549 NSCLC) was 2.8 µM and the TGI (A549 NSCLC) was 14 µM. The GI50 (SNB-75 CNS) was 2.55 µM, the TGI (SNB-75 CNS) was 10.3 µM and the GI50 (LOX IMVI melanoma) was 2.73 µM. It also gave a TGI (LOX IMVI melanoma) of 11.1 µM, a GI50 (HT29 colon) of 2.64 µM and a TGI (HT29 colon) of 11.8 µM. For the same compound, the GI50 (HL-60(TB) leukemia) was 1.72 µM, the TGI (HL-60(TB) leukemia) was 3.29 µM and the GI50 (T-47D breast) was 1.08 µM. For the same compound, the TGI (T-47D breast) was 6.19 µM, the GI50 (MDA-MB-468 breast) was 1.31 µM and the TGI (MDA-MB-468 breast) was 3.44 µM. For the same compound, the GI50 (M14 melanoma) was 2.83 µM, the TGI (M14 melanoma) was 8.76 µM and the GI50 (SK-MEL-5 melanoma) was 1.18 µM. It also gave a TGI (SK-MEL-5 melanoma) of 3.27 µM, a GI50 (RXF 393 renal) of 1.69 µM and a TGI (RXF 393 renal) of 8.25 µM. It also gave a GI50 (UACC-62 melanoma) of 2.97 µM, a TGI (UACC-62 melanoma) of 14.2 µM and a GI50 (OVCAR-5 ovarian) of 4.58 µM. It also gave a TGI (OVCAR-5 ovarian) of 17.1 µM, a GI50 (NCI-H460 NSCLC) of 1.27 µM and a TGI (NCI-H460 NSCLC) of 11.5 µM. It also gave a GI50 (OVCAR-8 ovarian) of 2.59 µM, a TGI (OVCAR-8 ovarian) of 15.2 µM and a GI50 (NCI-H226 lung) of 3.4 µM. It also gave a TGI (NCI-H226 lung) of 15.1 µM, a GI50 (IGROV1 ovarian) of 3.42 µM and a TGI (IGROV1 ovarian) of 14 µM. It also gave a GI50 (HOP-92 NSCLC) of 1.18 µM, a TGI (HOP-92 NSCLC) of 6.91 µM and a GI50 (SR leukemia) of 0.0374 µM. The TGI (SR leukemia) was 0.313 µM, the GI50 (NCI/ADR-RES ovarian) was 5.21 µM and the TGI (NCI/ADR-RES ovarian) was 25.1 µM. It also gave a GI50 (SW-620 colon) of 2.54 µM, a TGI (SW-620 colon) of 11.5 µM and a GI50 (DU-145 prostate) of 3.87 µM. The TGI (DU-145 prostate) was 14.9 µM, the GI50 (SK-MEL-28 melanoma) was 3.09 µM and the TGI (SK-MEL-28 melanoma) was 12.6 µM. The GI50 (BT-549 breast) was 2.9 µM, the TGI (BT-549 breast) was 11 µM and the GI50 (MCF7 breast) was 1.11 µM. For the same compound, the TGI (MCF7 breast) was 9.34 µM, the GI50 (SF-539 CNS) was 1.84 µM and the TGI (SF-539 CNS) was 5.38 µM. It also gave a GI50 (KM12 colon) of 2.63 µM, a TGI (KM12 colon) of 11.3 µM and a GI50 (PC-3 prostate) of 3.96 µM. The TGI (PC-3 prostate) was 14.7 µM, the GI50 (CAKI-1 renal) was 3.23 µM and the TGI (CAKI-1 renal) was 13.9 µM. For the same compound, the GI50 (NCI-H522 lung) was 2.37 µM, the TGI (NCI-H522 lung) was 6.27 µM and the GI50 (MALME-3M melanoma) was 1.59 µM. It also gave a TGI (MALME-3M melanoma) of 5.5 µM, a GI50 (SN12C renal) of 2.17 µM and a TGI (SN12C renal) of 9.35 µM. For the same compound, the GI50 (RPMI-8226 leukemia) was 1.45 µM, the TGI (RPMI-8226 leukemia) was 3.02 µM and the GI50 (HCC-2998 colon) was 3.08 µM. For the same compound, the TGI (HCC-2998 colon) was 14 µM, the GI50 (SK-OV-3 ovarian) was 4.57 µM and the TGI (SK-OV-3 ovarian) was 16.6 µM.
